Laboratory results from the supplement of paper PMC10307832.

Assays:
Experiment in all cases: relative viability (nuclei count vs DMSO), 5 days (fraction); higher = more cells survive
[1] = compound: CCOC1=CC=CC=C1N=NC2=C(NN(C2=O)C3=NC(=CS3)C4=CC=CC=C4)C [BAM7] + C[C@]1(O)C[C@@H](c2nc(-c3ccc4ccc(-c5ccccc5)nc4c3)c3c(N)nccn32)C1 [Linsitinib] (partner 1 µM)
Procedure, shortened: (§1)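 Relative viability equals treated-well nuclei counts divided by vehicle-well nuclei counts. Counts came from 4× images of lung cancer cell lines grown in 1536-well plates for 5 days after pin-tool dosing on the day after seeding. Dosing used one drug alone or a fixed anchor-drug dose plus five library-drug doses (not always all listed) in √10 steps, and values are medians of duplicate plates.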

[2] = compound: CCOC1=CC=CC=C1N=NC2=C(NN(C2=O)C3=NC(=CS3)C4=CC=CC=C4)C [BAM7] + CC(=O)Nc1cccc(-n2c(=O)n(C3CC3)c(=O)c3c(Nc4ccc(I)cc4F)n(C)c(=O)c(C)c32)c1 [Trametinib] (partner 0.02 µM)
Procedure, shortened: as §1

[3] = compound: CCOC1=CC=CC=C1N=NC2=C(NN(C2=O)C3=NC(=CS3)C4=CC=CC=C4)C [BAM7] + Cc1nc(Nc2ncc(C(=O)Nc3c(C)cccc3Cl)s2)cc(N2CCN(CCO)CC2)n1 [Dasatinib] (partner 0.075 µM)
Procedure, shortened: as §1

[4] = compound: CCOC1=CC=CC=C1N=NC2=C(NN(C2=O)C3=NC(=CS3)C4=CC=CC=C4)C [BAM7] + CC1(C)CCC(c2ccc(Cl)cc2)=C(CN2CCN(c3ccc(C(=O)NS(=O)(=O)c4ccc(N[C@H](CCN5CCOCC5)CSc5ccccc5)c(S(=O)(=O)C(F)(F)F)c4)cc3)CC2)C1 [Navitoclax] (partner 0.5 µM)
Procedure, shortened: as §1

[5] = compound: CCOC1=CC=CC=C1N=NC2=C(NN(C2=O)C3=NC(=CS3)C4=CC=CC=C4)C [BAM7] + CC(=O)c1c(C)c2cnc(Nc3ccc(N4CCNCC4)cn3)nc2n(C2CCCC2)c1=O [Palbociclib] (partner 0.5 µM)
Procedure, shortened: as §1

Cell Line | relative viability ([1]; first compound 0.5 µM) | relative viability ([1]; first compound 5 µM) | relative viability ([1]; first compound 15.81 µM) | relative viability ([1]; first compound 50 µM) | relative viability ([2]; first compound 0.5 µM) | relative viability ([2]; first compound 5 µM) | relative viability ([2]; first compound 15.81 µM) | relative viability ([2]; first compound 50 µM) | relative viability ([3]; first compound 0.5 µM) | relative viability ([3]; first compound 5 µM) | relative viability ([3]; first compound 15.81 µM) | relative viability ([3]; first compound 50 µM) | relative viability ([4]; first compound 0.5 µM) | relative viability ([4]; first compound 5 µM) | relative viability ([4]; first compound 15.81 µM) | relative viability ([4]; first compound 50 µM) | relative viability ([5]; first compound 0.5 µM) | relative viability ([5]; first compound 5 µM) | relative viability ([5]; first compound 15.81 µM) | relative viability ([5]; first compound 50 µM)
HCC-15 | 0.914 | 0.905 | 0.859 | 0.853 | 0.341 | 0.374 | 0.331 | 0.384 | 0.594 | 0.574 | 0.617 | 0.565 | 0.751 | 0.768 | 0.683 | 0.707 | 0.621 | 0.694 | 0.614 | 0.686
HCC-44 | 0.717 | 0.67 | 0.62 | 0.689 | 1.07 | 1.11 | 0.983 | 1.12 |  |  |  |  | 1.02 | 1.02 | 0.959 | 1.01 | 0.956 | 0.974 | 0.925 | 0.981
HCC-78 | 0.544 | 0.393 | 0.376 | 0.585 | 0.579 | 0.805 | 0.689 | 0.819 | 0.502 | 0.276 | 0.424 | 0.306 | 0.901 | 0.69 | 0.658 | 0.796 | 0.487 | 0.383 | 0.49 | 0.45
HCC-366 | 0.67 | 0.501 | 0.583 | 0.677 | 0.328 | 0.373 | 0.294 | 0.356 | 0.67 | 0.675 | 0.708 | 0.717 | 1.11 | 0.981 | 0.964 | 0.957 | 0.406 | 0.343 | 0.303 | 0.389
IA-LM | 0.755 | 0.705 | 0.545 | 0.672 |  |  |  |  |  |  |  |  | 0.689 | 0.556 | 0.556 | 0.658 |  |  |  | 
LCLC-103H | 1.06 | 1.22 | 1.15 | 0.933 | 0.664 | 0.706 | 0.69 | 0.684 | 0.46 | 0.512 | 0.523 | 0.523 |  |  |  |  | 0.507 | 0.493 | 0.484 | 0.529
NCI-H358 | 0.782 | 0.878 | 0.704 | 0.787 |  | 0.152 | 0.137 | 0.126 | 0.202 | 0.217 | 0.197 | 0.254 |  |  |  |  |  | 0.129 | 0.141 | 0.137
NCI-H522 |  |  |  |  | 0.72 | 0.741 | 0.665 | 0.718 | 0.872 | 0.976 | 0.828 | 0.827 |  |  |  |  | 1.19 | 0.986 | 0.649 | 1.16
NCI-H596 | 1.05 | 1.15 | 1.02 | 1.14 | 0.869 | 0.838 | 0.754 | 0.736 | 0.621 | 0.644 | 0.578 | 0.632 | 0.82 | 0.937 | 0.92 | 1.06 |  |  |  | 
NCI-H650 | 0.867 | 0.95 | 0.825 | 1.19 | 1.02 | 0.98 | 1.04 | 1.28 | 0.422 | 0.49 | 0.477 | 0.517 |  |  |  |  | 0.324 | 0.32 | 0.272 | 0.318
NCI-H661 | 0.672 | 0.605 | 0.433 | 0.601 | 0.561 | 0.638 | 0.606 | 0.619 | 0.991 | 0.965 | 0.759 | 0.962 |  |  |  |  | 0.443 | 0.433 | 0.422 | 0.422
NCI-H1299 | 1.02 | 1.14 | 1.02 | 0.936 |  |  |  |  |  |  |  |  | 1.05 | 1.08 | 1.07 | 1.06 |  |  |  | 
NCI-H1563 | 1.22 | 1.19 | 1.13 | 1.24 |  |  |  |  | 0.438 | 0.497 | 0.484 | 0.41 |  |  |  |  |  |  |  | 
NCI-H1648 |  |  |  |  | 0.558 | 0.476 | 0.421 | 0.464 |  |  |  |  |  |  |  |  | 0.303 | 0.257 | 0.264 | 0.375
NCI-H1650 |  |  |  |  | 0.607 | 0.467 | 0.578 | 0.727 | 0.338 | 0.278 | 0.277 | 0.337 | 1.46 | 1.26 | 1.15 | 1.15 | 0.351 | 0.268 | 0.304 | 0.456
NCI-H1703 | 0.791 | 0.856 | 0.75 | 0.791 |  |  |  |  |  |  |  |  | 1.35 | 1.13 | 0.941 | 0.872 |  |  |  | 
NCI-H2170 |  |  |  |  | 0.917 | 0.799 | 0.814 | 0.816 | 0.644 | 0.683 | 0.731 | 0.777 | 0.559 | 0.581 | 0.479 | 0.598 | 0.38 | 0.381 | 0.329 | 0.319
NCI-H2342 |  |  |  |  | 0.933 | 0.818 | 0.745 | 0.82 | 0.286 | 0.343 | 0.352 | 0.316 |  |  |  |  | 0.482 | 0.498 | 0.531 | 0.539
SW 900 |  |  |  |  |  | 0.72 |  | 0.888 | 0.358 | 0.398 | 0.711 | 0.656 |  |  |  |  |  | 0.543 |  | 0.596
